Molecules are shown by their SMILES.

The values that follow come from ChEMBL document CHEMBL4706692, “CC-90009: A Cereblon E3 Ligase Modulating Drug That Promotes Selective Degradation of GSPT1 for the Treatment of Acute Myeloid Leukemia” (J Med Chem, 2021).

The nature of test [1]: Selectivity index, ratio of IC50 for cytotoxicity against human THLE-2 cells to IC50 for antiproliferative activity against human KG-1 cells.
The next test deals with KG-1. In words: Antiproliferative activity against human KG-1 cells assessed as reduction in cell viability incubated for 72 hrs by cell titer glo assay. It counts as functional, cell-based. As to conditions: KG-1, 72 h.
Another test has as its system THLE-2. In words: Cytotoxicity against human THLE-2 cells assessed as cell viability incubated for 72 hrs by cell titer glo assay. It counts as cell-based. As to conditions: THLE-2, 72 h. (In general: ATP-based viability assays read luminescence as a measure of living cells.)

On to `O=C1CCC(N2Cc3cc(CNC(=O)Nc4ccccc4)ccc3C2=O)C(=O)N1` (stereo unspecified), for which, in test [1], the “Ratio IC50” value amounted to 4. Also, the IC50 (in general, the point on the concentration scale where inhibition reaches its midpoint) in the test with KG-1 turned out to be 15 nM; in the test on THLE-2, 60 nM.

Take `O=C1CCC(N2Cc3cc(CNC(=O)C(=O)c4ccccc4)ccc3C2=O)C(=O)N1` (stereo unspecified): the “Ratio IC50” value in test [1] is on record as 22. In addition, the IC50 turned out to be 9 nM with KG-1 and 196 nM in the test on THLE-2.
